Test results from a melting point compilation (Tetko et al.).

Row | SMILES | melting point [°C]
1 | FC(F)(F)C(F)(F)C(F)(F)C(F)(F)F | -128
2 | CC(=O)OC1(C(C)=O)CCC2C3C=C(Cl)C4=CC(=O)CCC4(C)C3CCC21C (stereo unspecified) | 213
3 | CNC(=C[N+](=O)[O-])NCCSCc1csc(CN(C)C)n1 | 203
4 | Cc1n[nH]c(C)c1C(C)(C)C | 104
5 | C=CC(=O)ON1C(=O)CCC1=O | 69
6 | N#CCCn1cc(C(F)(F)F)ccc1=O | 89 to 90
7 | CCCCCCCOCC | -68.3
8 | CCOC(=O)c1sc(N)c(C(=O)OCC)c1C | 115
9 | COC(=O)CCC(C)C1CCC2C3C(O)C(O)C4CC(OC(C)=O)CCC4(C)C3CC(OC(C)=O)C12C (stereo unspecified) | 175 to 177
10 | Cc1ccc(N=CN(C)C=Nc2ccc(C)cc2C)c(C)c1 | 86
11 | Clc1ccc(C2C3CCc4ccccc4C3=NN2c2ccc(Cl)cc2)cc1 (stereo unspecified) | 186 to 188
12 | O=[N+]([O-])c1ccc(S(=O)(=O)O)c([N+](=O)[O-])c1 | 108
13 | Oc1ccc(Cl)cc1C1CCCCC1 | 59 to 60
14 | CC(C)NCC(O)c1ccc([N+](=O)[O-])cc1 (stereo unspecified) | 98
15 | C=CCN1CCCC1CNC(=O)c1cc(S(=O)(=O)NC)c(N)cc1OC (stereo unspecified) | 169
16 | COc1ccc2c(c1)=NC1=C(C)NCCC=21 | 230
17 | FC(F)(F)C(Cl)Br (stereo unspecified) | -118
18 | NC(=S)CSc1ccccc1 | 88 to 91
19 | O=c1occcc1O | 93.8
20 | FC(F)(F)C(Cl)(Cl)C(F)(F)Cl | -4.3

Row | SMILES | melting point [°C]
21 | C(=C(c1ccccc1)c1ccccc1)=C(c1ccccc1)c1ccccc1 | 140
22 | O=S1OCCO1 | -11
23 | O=C(NCCc1cc([N+](=O)[O-])c(CCNC(=O)c2ccccc2)c([N+](=O)[O-])c1)c1ccccc1 | 217
24 | CCCC(=O)c1cc(O)c(O)cc1O | 154
25 | NC(=S)NCCc1ccccc1 | 150 to 152
26 | Nc1cccc(C(F)(F)F)n1 | 88
27 | CC(N)C(C)(C)C (stereo unspecified) | -20
28 | N#Cc1cc([N+](=O)[O-])cc([N+](=O)[O-])c1 | 129
29 | NC(=O)C1CO1 (stereo unspecified) | 33
30 | CCOC(=O)CSCCC1NC(C(=O)O)CS1 (stereo unspecified) | 142
31 | Cc1nc(S)sc1C | 166 to 168
32 | O=C=Nc1ccc(I)cc1 | 45
33 | CCCCCCCCCCCCOCCOCCOCCOCCOCCOCCO | 27
34 | COC(=O)[C@@H]1C[C@@H](O)CN1C(=O)OC(C)(C)C | 91 to 96
35 | CC=CCCC=CC | -76
36 | OCc1cc(CO)cc(OCc2cc(COc3cc(CO)cc(CO)c3)cc(COc3cc(CO)cc(CO)c3)c2)c1 | 144
37 | COC(=O)Nc1nc2ccccc2[nH]1 | 305
38 | O=C(Cl)c1ccc(I)cc1 | 63
39 | CCCCCCC(=O)OCCC | -63.5
40 | Nc1cc(Cl)c([N+](=O)[O-])cc1N | 189 to 193

Row | SMILES | melting point [°C]
41 | CCNC1=NC(=O)C(c2ccccc2)O1 (stereo unspecified) | 148
42 | BrCc1cccc(-n2cccc2)c1 | 54 to 55
43 | CCC1C2CC3C4N(C)c5ccccc5C45CC(C2C5O)N3C1O (stereo unspecified) | 159
44 | CC(=O)C1(O)CCC2C3CCC4CC(O)CCC4(C)C3CCC21C (stereo unspecified) | 265
45 | CCOC(=O)[C@]12C[C@@H](c3ccccc3)c3ccccc3[C@H]1c1ccccc1OC2=O | 162
46 | c1cc(N2CCNCC2)ccn1 | 142 to 144
47 | O=C(O)C(O)C(F)(F)F (stereo unspecified) | 69
48 | CC(C)(C)OC(=O)N1CCC(Oc2ccccc2N)CC1 | 71 to 78
49 | CCCCI | -103
50 | CC(C)(C)OC(=O)C(Cl)(Cl)Cl | 25.5
51 | COc1cccc(C=C(C)[N+](=O)[O-])c1 | 45 to 47
52 | c1c2c(cc3c1CCCN3)NCCC2 | 113
53 | CN1CCC2=C(C1)C(c1ccccc1)c1ccccc12 (stereo unspecified) | 91
54 | CCOC(=O)NNC(=O)NC1CCCCC1 | 115 to 117
55 | C[Si](C)(C)N=C=S | -32.8
56 | CCOP(=S)(OCC)Oc1nc(Cl)n(C(C)C)n1 | < 25
57 | COC(=O)CCC(C)C1CCC2C3C(=O)CC4CC(=O)CCC4(C)C3CC(=O)C12C (stereo unspecified) | 242 to 243
58 | C#CCC1(CC#C)C(=O)OC(C)(C)OC1=O | 135 to 137
59 | C=CC=CC(=O)O | 79

Second part, the compound after the results:

Row | melting point [°C] | SMILES
60 | 123 | CC(=O)Nc1ccccc1N=Nc1ccccc1
61 | 202 to 204 | O=C(O)C=Cc1cccc([N+](=O)[O-])c1
62 | 135 | O=C(c1ccc(Cl)cc1)c1noc(-c2ccc3ccccc3c2)c1S(=O)(=O)c1ccccc1
63 | 54 | CC1=C(C)C(C(C)C)C=C1Cc1ccccc1 (stereo unspecified)
64 | 55.5 | CC(=O)N(C)c1ccccc1C
65 | 23 | OCc1ccc(F)cc1
66 | 100 to 103 | Cc1onc(-c2c(Cl)cccc2Cl)c1C=O
67 | 236 | O=C(COc1ccc(Cl)cc1)Nc1nc2ccc(Br)cc2s1
68 | 81 to 84 | COc1ccc(-c2ccccc2)cc1N
69 | 247 | Cc1ccc(/N=N/C2C(=O)NN(c3ccccc3)C2=O)cc1 (stereo unspecified)
70 | 171 to 173 | Cc1cc(C(=O)O)c(C)n1Cc1ccncc1
71 | 151 to 153 | O=[N+]([O-])c1ccc(S(=O)(=O)N2CCCC2)cc1
72 | 114 | CN(C)C(=O)Nc1ccc(SC(F)(F)Cl)c(Cl)c1
73 | 141 | Nc1cccc(S(N)(=O)=O)c1
74 | 121 to 122 | CC(=O)c1sc(-c2cccs2)nc1C
75 | 139 | Nc1cc([N+](=O)[O-])ccc1Br
76 | -3.5 | O=Cc1ccccc1O
77 | 45.5 | O=S(=O)(Oc1ccc(Cl)cc1Cl)c1ccccc1
78 | 180 | CC(=O)c1cc(C(C)=O)c(O)cc1O
79 | 208 | O=C(O)CCC(=O)c1ccc2c(c1)-c1cccc3cccc-2c13
80 | 268 | O=C1NC(=O)C2(CCc3ccccc3C2)N1 (stereo unspecified)
81 | 116 to 117 | NCc1ccc(-c2ccsc2)cc1
82 | 181 to 183 | NNC(=O)c1sc2ccccc2c1Cl
83 | 110 to 112 | CCOC(=O)c1c(C)oc(NC(=O)Nc2ccccc2)c1C(=O)OCC

Row | melting point [°C] | SMILES
84 | 102 | CC(C)n1c(C(F)(F)F)nc2cc(C(=O)Cl)ccc21
85 | 110 | CC(C)(C)OC(=O)N[C@@H](Cc1ccc(Cl)cc1)C(=O)O
86 | 64 to 66 | CCOC(=O)Nc1ccc(Cl)cc1
87 | 205 to 206 | Cc1nn(-c2ccccc2)nc1C(=O)NNC(=S)Nc1ccccc1
88 | 133 | CC(=O)Nc1c(C)ccc2c1C(=O)c1ccccc1C2=O
89 | -19 | CCN(CCO)c1cccc(C)c1
90 | 44 to 47 | CCCCCCCCCCCCOc1ccc(C(C)=O)cc1
91 | 88 | Oc1ccccc1C(O)c1ccccc1 (stereo unspecified)
92 | 19 | O=C(OCc1ccccc1)c1ccccc1O
93 | 64 to 66 | CCCCOc1ccc(/N=N/c2ccc(CCCC)cc2)cc1
94 | 86 | CCC(C(N)=O)c1ccccc1 (stereo unspecified)
95 | 45 | COC(=O)c1ccc(Cl)c(Cl)c1
96 | 262 to 268 | O=C(O)c1cccc(-n2cncn2)c1
97 | 140 to 143 | Cc1cc(C(=O)NCc2ccc(Cl)cc2)no1
98 | 110 | COc1ccc2c(=O)c(C)c(-c3ccccc3)oc2c1CN(C)C
99 | 125 to 127 | O=C(O)c1cc(F)nc(F)c1F
100 | 129 to 132 | O=C(O)CCC(=O)c1ccc(Cl)cc1
101 | 23 | CCOC(=O)c1ccncc1
102 | 169 | N#C/C(=N/Nc1ccc(Br)cc1)c1nc(-c2ccccc2)cs1
103 | 43 | CC(C)(C)C(=O)C=Cc1ccccc1
104 | 124 to 125 | CC(=O)N(c1ccc(C)cc1)c1nc(CCl)cs1
105 | 170 to 172 | Cc1ccc(N)cc1NS(C)(=O)=O
106 | 220 | NS(=O)(=O)c1cccc(Cl)c1Cl
107 | 169 to 171 | CSc1scnc1S(=O)(=O)c1ccc(C)cc1

Row | melting point [°C] | SMILES
108 | 39 to 40 | Cc1onc(-c2ccccc2)c1N=C=O
109 | 238 | NC(=O)/C(=N\Nc1cccnc1)c1nc2ccccc2s1
110 | 126 to 129 | CCOC(=O)c1csc(Cn2cnc(Cl)c2Cl)n1
111 | 139 to 143 | COC(=O)c1scc(S(=O)(=O)C(C)C)c1N
112 | 25.2 | c1ccc(Cc2ccccc2)cc1
113 | 73 | CSc1ccc2c(c1)N(CCC1CCCCN1C)c1ccccc1S2 (stereo unspecified)
114 | 175 | CN(C(=O)C(Cl)Cl)c1ccc(O)cc1
115 | 47.5 | Cc1ccc(-c2ccccc2)s1
116 | 169 | CCOC(=O)c1nn(-c2ccc(C)cc2)c(C)c1C(=O)c1noc(-c2ccccc2)c1S(=O)(=O)c1ccccc1
117 | 102 | Cc1ccc(C(=O)CC#N)cc1
118 | 111 | CC(OCC(=O)c1ccccc1)=C(C#N)c1ccccc1
119 | 2 | CCC(=O)c1cc(C)ccc1O
120 | 187 to 188 | Cc1ccccc1C(=O)Cc1ccc(C(N)=O)cc1
121 | 238 to 241 | O=C(O)c1cc2cc([N+](=O)[O-])ccc2s1
122 | 189 | Nc1cccc2c(O)cccc12
123 | 162 to 166 | O=C1OCc2cc(Br)ccc21
124 | 203 to 207 | COc1ccc(C2Sc3ccccc3NC(=O)C2O)cc1 (stereo unspecified)
125 | 134 to 136 | ON=C(c1cccs1)c1cccs1
126 | 60 to 64 | CC(C)(C)C(=O)Nc1ccncc1C=O
127 | 156 to 161 | O=C(O)COc1ccc(Br)cc1
128 | 30 | CCOC(=O)Cc1ccc(Br)cc1
129 | 146 | CC1(C)N=C(N)N=C(N)N1c1ccc(Cl)cc1
130 | 53 | CCN(CC)C(C)CN1c2ccccc2Sc2ccccc21 (stereo unspecified)
131 | 330 | O=C(O)/C=C/c1ccc2ccc(=O)[nH]c2c1
